Read-outs that look alike come from different tables or passages of the source.
Assays:
Test in all cases: MIC of compounds alone and combined with antibacterials, broth microdilution (CLSI)
Type in all cases: cell-based
[1] = test system: Citrobacter freundii (CFR) isolates; conditions: for MIC: Citrobacter freundii, ATB alone, read-out: MIC
Procedure, shortened: (§1)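 Log-phase isolates at final 5·10^5 CFU/mL in cation-adjusted Mueller-Hinton broth, incubated 16-20 h at 35° C in ambient air. MIC read visually as lowest concentration preventing growth, for compound alone and for antibacterial at each compound concentration.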

[2] = test system: Citrobacter koseri (CKR) isolates; conditions: for MIC: Citrobacter koseri, ATB alone, read-out: MIC
Procedure, shortened: as §1

[3] = test system: Enterobacter cloacae (ECL) isolates; conditions: for MIC: Enterobacter cloacae, ATB alone
Procedure, shortened: as §1

[4] = test system: Klebsiella oxytoca (KOX) isolates
Procedure, shortened: as §1

[5] = test system: Providencia rettgeri (PRE) isolates; conditions: for MIC: Providencia rettgeri, ATB alone; for MIC ATB in combination: strain PRE UFR236
Procedure, shortened: as §1

[6] = test system: Salmonella typhimurium (STY) isolates
Procedure, shortened: as §1

CC(C)(O/N=C(\C(=O)N[C@@H]1C(=O)N2C(C(=O)[O-])=C(C[n+]3ccccc3)CS[C@H]12)c1csc(N)n1)C(=O)O [CAZ, Ceftazidime]
32 µg/mL: MIC ATB in combination ([1]; CFR UFR83, AF1 @ 4 μg/mL) | MIC ([1]; strain CFR UFR146 (TEM-1, KPC-2)) | MIC ATB in combination ([3]; ECL 260323, AF1 @ 8 μg/mL) | MIC ([5]; strain PRE UFR236 (TEM-1, OXA-48), read-out: MIC)
2 µg/mL: MIC ATB in combination ([1]; CFR UFR146, AF1 @ 8 μg/mL) | MIC ATB in combination ([1]; strain CFR UFR253, antibacterial combined with AF1 @ 8 μg/mL) | MIC ATB in combination ([3]; ECL 190310, AF1 @ 8 μg/mL) | MIC ATB in combination ([3]; ECL 200138, AF1 @ 8 μg/mL) | MIC ATB in combination ([3]; ECL NEM146383, AF1 @ 4 μg/mL) | MIC ATB in combination ([3]; ECL NEM146383, AF1 @ 8 μg/mL) | MIC ATB in combination ([3]; ECL P99, AF1 @ 4 μg/mL) | MIC ATB in combination ([3]; ECL UFR14, AF1 @ 4 μg/mL) | MIC ATB in combination ([3]; ECL UFR70, AF1 @ 4 μg/mL) | MIC ([3]; strain ECL UFR12 (CTX-M-9, OXA-48)) | MIC ATB in combination ([3]; strain ECL UFR196, antibacterial combined with AF1 @ 4 μg/mL) | MIC ATB in combination ([4]; KOX UFR21, AF1 @ 4 μg/mL)
> 256 µg/mL: MIC ([3]; strain ECL UFR198 (TEM-1, SHV-12, CTX-M-15, DHA-1, OXA-1, OXA-48)) | MIC ([3]; strain ECL 200138 (AmpC)) | MIC ([3]; strain ECL 260323 (AmpC)) | MIC ([3]; strain ECL UFR13 (TEM-1, SHV-12, CTX-M-9, OXA-48)) | MIC ([3]; strain ECL UFR14 (TEM-1, SHV-12, CTX-M-15, DHA-1, OXA-1, OXA-48)) | MIC ([3]; strain ECL UFR196 (TEM-1, CTX-M-15, OXA-1, OXA-48)) | MIC ([3]; strain ECL UFR200 (TEM-1, SHV-12, KPC-2)) | MIC ([5]; strain PRE UFR99 (OXA-1, OXA-181))
4 µg/mL: MIC ATB in combination ([1]; CFR UFR146, AF1 @ 4 μg/mL) | MIC ATB in combination ([1]; strain CFR UFR253, antibacterial combined with AF1 @ 4 μg/mL) | MIC ATB in combination ([2]; CKO UFR150, AF1 @ 4 μg/mL) | MIC ATB in combination ([2]; CKO UFR150, AF1 @ 8 μg/mL) | MIC ([2]; strain CKO UFR150 (TEM-1, OXA-48)) | MIC ATB in combination ([3]; ECL 2185D, AF1 @ 8 μg/mL) | MIC ATB in combination ([3]; ECL 190310, AF1 @ 4 μg/mL) | MIC ATB in combination ([3]; ECL 260253, AF1 @ 8 μg/mL) | MIC ATB in combination ([3]; ECL UFR60, AF1 @ 8 μg/mL) | MIC ATB in combination ([3]; ECL UFR84, AF1 @ 4 μg/mL) | MIC ATB in combination ([3]; strain ECL UFR198, antibacterial combined with AF1 @ 4 μg/mL) | MIC ATB in combination ([3]; strain ECL UFR198, antibacterial combined with AF1 @ 8 μg/mL)
1 µg/mL: MIC ([2]; strain CKO ROU (TEM-1, SHV-12, CTX-M-15, OXA-1, OXA-48)) | MIC ATB in combination ([3]; ECL 260508, AF1 @ 4 μg/mL) | MIC ATB in combination ([3]; ECL UFR14, AF1 @ 8 μg/mL) | MIC ATB in combination ([3]; ECL UFR84, AF1 @ 8 μg/mL) | MIC ATB in combination ([3]; ECL UFR85, AF1 @ 4 μg/mL) | MIC ([3]; strain ECL UFR194 (OXA-48)) | MIC ATB in combination ([3]; strain ECL UFR195, antibacterial combined with AF1 @ 4 μg/mL) | MIC ATB in combination ([3]; strain ECL UFR197, antibacterial combined with AF1 @ 4 μg/mL) | MIC ATB in combination ([5]; antibacterial combined with AF1 @ 4 μg/mL)
0.5 µg/mL: MIC ATB in combination ([1]; CFR UFR11, AF1 @ 8 μg/mL) | MIC ATB in combination ([1]; CFR UFR250, AF1 @ 4 μg/mL) | MIC ATB in combination ([1]; strain CFR UFR254, antibacterial combined with AF1 @ 4 μg/mL) | MIC ATB in combination ([2]; CKO UFR149, AF1 @ 4 μg/mL) | MIC ATB in combination ([3]; ECL 200322, AF1 @ 4 μg/mL) | MIC ATB in combination ([3]; ECL 200322, AF1 @ 8 μg/mL) | MIC ATB in combination ([3]; ECL UFR12, AF1 @ 4 μg/mL) | MIC ATB in combination ([3]; ECL UFR13, AF1 @ 4 μg/mL) | MIC ATB in combination ([3]; ECL UFR13, AF1 @ 8 μg/mL) | MIC ATB in combination ([3]; ECL UFR70, AF1 @ 8 μg/mL) | MIC ATB in combination ([3]; ECL UFR194, AF1 @ 4 μg/mL) | MIC ATB in combination ([3]; ECL UFR200, AF1 @ 4 μg/mL) | MIC ATB in combination ([3]; strain ECL UFR195, antibacterial combined with AF1 @ 8 μg/mL) | MIC ATB in combination ([3]; strain ECL UFR196, antibacterial combined with AF1 @ 8 μg/mL) | MIC ATB in combination ([3]; strain ECL UFR197, antibacterial combined with AF1 @ 8 μg/mL) | MIC ATB in combination ([5]; antibacterial combined with AF1 @ 8 μg/mL)
<=0.25 μg/mL: MIC ATB in combination ([1]; CFR UFR10, AF1 @ 4 μg/mL) | MIC ATB in combination ([1]; CFR UFR10, AF1 @ 8 μg/mL) | MIC ATB in combination ([1]; CFR UFR248, AF1 @ 4 μg/mL) | MIC ATB in combination ([1]; CFR UFR248, AF1 @ 8 μg/mL) | MIC ATB in combination ([1]; CFR UFR249, AF1 @ 4 μg/mL) | MIC ATB in combination ([1]; CFR UFR249, AF1 @ 8 μg/mL) | MIC ATB in combination ([1]; CFR UFR250, AF1 @ 8 μg/mL) | MIC ATB in combination ([1]; strain CFR UFR254, antibacterial combined with AF1 @ 8 μg/mL) | MIC ATB in combination ([2]; CKO ROU, AF1 @ 4 μg/mL) | MIC ATB in combination ([2]; CKO ROU, AF1 @ 8 μg/mL) | MIC ATB in combination ([2]; CKO UFR149, AF1 @ 8 μg/mL) | MIC ATB in combination ([3]; ECL 190408, AF1 @ 4 μg/mL) | MIC ATB in combination ([3]; ECL 260508, AF1 @ 8 μg/mL) | MIC ATB in combination ([3]; ECL P99, AF1 @ 8 μg/mL) | MIC ATB in combination ([3]; ECL UFR12, AF1 @ 8 μg/mL) | MIC ATB in combination ([3]; ECL UFR85, AF1 @ 8 μg/mL) | MIC ATB in combination ([3]; ECL UFR194, AF1 @ 8 μg/mL) | MIC ATB in combination ([3]; ECL UFR200, AF1 @ 8 μg/mL) | MIC ATB in combination ([4]; KOX UFR21, AF1 @ 8 μg/mL) | MIC ATB in combination ([4]; KOX UFR173, AF1 @ 8 μg/mL) | MIC ATB in combination ([4]; KOX UFR223, AF1 @ 4 μg/mL) | MIC ATB in combination ([4]; KOX UFR223, AF1 @ 8 μg/mL) | MIC ATB in combination ([4]; KOX UFR224, AF1 @ 4 μg/mL) | MIC ATB in combination ([4]; KOX UFR224, AF1 @ 8 μg/mL) | MIC ATB in combination [6]
16 µg/mL: MIC ATB in combination ([3]; ECL 260253, AF1 @ 4 μg/mL) | MIC ATB in combination ([3]; ECL UFR60, AF1 @ 4 μg/mL)
<0.25 µg/mL: MIC ATB in combination ([3]; ECL 190408, AF1 @ 8 μg/mL) | MIC ATB in combination ([3]; ECL 260033, AF1 @ 8 μg/mL)
8 µg/mL: MIC ATB in combination ([1]; CFR UFR11, AF1 @ 4 μg/mL) | MIC ATB in combination ([1]; CFR UFR83, AF1 @ 8 μg/mL) | MIC ([1]; strain CFR UFR11 (TEM-1, OXA-1, OXA-48)) | MIC ATB in combination ([3]; ECL 200138, AF1 @ 4 μg/mL) | MIC ATB in combination ([3]; ECL 260033, AF1 @ 4 μg/mL) | MIC ([4]; Klebsiella oxytoca, strain KOX UFR173 (OXY2-2), ATB alone, read-out: MIC)
256 µg/mL: MIC ([3]; strain ECL 190310 (AmpC))
512 µg/mL: MIC ([3]; strain ECL 260033 (AmpC))
